The supplement of paper PMC10307832

Assays:
Test in all cases: relative viability (nuclei count vs DMSO), 5 days (fraction); higher = more cells survive
[1] = compound: C[As](C)SC[C@H](NC(=O)CC[C@H](N)C(=O)O)C(=O)NCC(=O)O [Darinaparsin] + C[C@]1(O)C[C@@H](c2nc(-c3ccc4ccc(-c5ccccc5)nc4c3)c3c(N)nccn32)C1 [Linsitinib] (partner 1 µM)
Procedure, shortened: (§1)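 Lung cancer cell lines were pin-tool dosed in 1536-well plates on the day after seeding, with either a lone drug or a fixed anchor-drug dose plus five library-drug doses (not always all listed) in √10 steps. Nuclei were counted on 4× images after 5 days. Relative viability is the ratio of treated-well to vehicle-well nuclei counts, with each value a median of duplicate plates.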

AZ628 + Olaparib = compound: CC1=C(C=C(C=C1)NC(=O)C2=CC(=CC=C2)C(C)(C)C#N)NC3=CC4=C(C=C3)N=CN(C4=O)C [AZ628] + O=C(c1cc(Cc2n[nH]c(=O)c3ccccc23)ccc1F)N1CCN(C(=O)C2CC2)CC1 [Olaparib] (partner 8 µM)
Procedure, shortened: as §1

[2] = compound: C[As](C)SC[C@H](NC(=O)CC[C@H](N)C(=O)O)C(=O)NCC(=O)O [Darinaparsin] + C[C@@H](Oc1cc(-c2cnn(C3CCNCC3)c2)cnc1N)c1c(Cl)ccc(F)c1Cl [Crizotinib] (partner 1 µM)
Procedure, shortened: as §1

QS11 + Decitabine = compound: C1CC2=C(C1)C=C(C=C2)OC3=NC(=C4C(=N3)N(C=N4)CC5=CC=C(C=C5)C6=CC=CC=C6)N[C@@H](CC7=CC=CC=C7)CO [QS11] + Nc1ncn([C@H]2C[C@H](O)[C@@H](CO)O2)c(=O)n1 [Decitabine] (partner 2 µM)
Procedure, shortened: as §1

Cell Line	relative viability ([1]; first compound 0.08 µM)	relative viability ([1]; first compound 0.8 µM)	relative viability ([1]; first compound 2.53 µM)	relative viability ([1]; first compound 8 µM)	relative viability (AZ628 + Olaparib; first compound 0.08 µM)	relative viability (AZ628 + Olaparib; first compound 0.253 µM)	relative viability (AZ628 + Olaparib; first compound 0.8 µM)	relative viability (AZ628 + Olaparib; first compound 2.53 µM)	relative viability (AZ628 + Olaparib; first compound 8 µM)	relative viability ([2]; first compound 0.08 µM)	relative viability ([2]; first compound 0.8 µM)	relative viability ([2]; first compound 2.53 µM)	relative viability ([2]; first compound 8 µM)	relative viability (QS11 + Decitabine; first compound 0.08 µM)	relative viability (QS11 + Decitabine; first compound 0.253 µM)	relative viability (QS11 + Decitabine; first compound 0.8 µM)	relative viability (QS11 + Decitabine; first compound 2.53 µM)	relative viability (QS11 + Decitabine; first compound 8 µM)
NCI-H358	0.753	0.601	0.665	0.68	0.567	0.457	0.361	0.417	0.295	0.566	0.499	0.576	0.673	0.213	0.213	0.227	0.266	0.207
ChaGo-K-1					0.456	0.389	0.422	0.452	0.453	1.38	1.14	0.924	1.1		0.515	0.5	0.56	0.443
201T	1.04	1.03	1.04	1.06	0.909	0.865	0.908	0.868	0.926	1.09	1.02	1	1.09	0.8	0.907	0.74	0.901	0.694
HCC-44	0.841	0.636	0.441	0.86	1.01	0.999	0.977	0.972	0.974	0.875	0.872	0.618	0.929	1.08	0.936	0.572	0.922	0.916
EMC-BAC-2	0.862	0.758	0.773	0.965	0.566	0.581	0.612	0.558	0.746	0.812	0.772	0.676	0.801	0.939	1.07	0.842	0.913	0.854
NCI-H2405	1.01	0.91	0.812	0.887	0.661	0.792	0.572	0.646	0.555	0.911	0.787	0.755	0.873	0.793	0.714	0.706	0.906	0.843
NCI-H2342					0.447	0.401	0.479	0.449	0.431					0.744	0.724	0.715	0.718	0.77
HOP-62	1.25	0.94	0.899	1.02	0.543	0.359	0.633	0.68	0.39	1.02	1.05	1.05	1.06	0.244	0.241	0.189	0.208	0.233
NCI-H1651	1.21	1.08	0.938	1.13	0.171	0.186	0.172	0.184	0.191	0.87	0.895	0.845	1.07	0.591	0.641	0.54	0.566	0.578
NCI-H2085	0.935	0.864	0.889	1.05	0.805	0.756	0.895	0.865	0.703	0.936	0.858	0.768	0.9	0.478	0.549	0.49	0.56	0.557
NCI-H2023	0.7	0.669	0.604	0.858	0.452	0.427	0.522	0.508	0.433	0.745	0.636	0.56	0.754	0.231	0.227	0.217	0.249	0.224
UMC-11	1.04	1.07	0.862	1.32	0.393	0.357	0.291	0.344	0.331	0.678	0.577	0.407	0.559	0.318	0.482	0.604	0.543	0.651
NCI-H1395	1.01	0.995	0.97	0.991	0.478	0.458	0.443	0.461	0.447					0.699	0.791	0.71	0.789	0.801
NCI-H2170					0.56	0.598	0.607	0.638	0.551	1.61	1.35	0.953	1.51	0.487	0.466	0.398	0.43	0.5
NCI-H522					0.643	0.691	0.602	0.689	0.522					0.704	0.569	0.677	0.664	0.726
NCI-H1648					1.09	0.62	1.01	0.767	0.556					0.516	0.436	0.476	0.443	0.665
NCI-H1650					0.839	0.866	0.847	0.766	0.909	1.14	0.98	0.795	1.17	0.453	0.447	0.296	0.56	0.406
NCI-H1563	1.23	1.14	1.21	1.3						0.903	0.768	0.87	0.874					
NCI-H1703	1.42	0.774	0.797	0.799	0.239	0.216	0.216	0.178	0.177	1.45	0.859	0.483	0.607					
NCI-H1793	0.919	1.01	0.769	1.22	0.971	0.805	0.717	0.819	0.445					0.474	0.424	0.51	0.477	0.453
Calu-6	1.06	1.06	0.815	1.05	0.595	0.491	0.496	0.41	0.16	1.17	0.857	0.665	0.751					
CAL-12T	1.08	0.757	0.686	0.956	0.713	0.68	0.781	0.637	0.457	0.902	0.752	0.391	0.707					
